Nine molecules from EPA's ToxValDB 9.5 can be followed below.

Data set [1] deals with Rattus norvegicus. The note with it: M/F.
In data set [2] the test system is Rattus norvegicus. The note with it: oral, M/F, Sprague-Dawley.
The subject of data set [3] is Mus musculus. The note with it: reproduction developmental, oral, gavage, M, NMRI, generation: P0.
Data set [4] deals with Mus musculus. The note with it: developmental; oral; gavage; M; neurobehavioral effects.
The test system of data set [5] is Rattus norvegicus. The note with it: short-term; duration: 28 days; oral; gavage; M/F; Sprague-Dawley; Clinical Observation: Tremor Salivation + Body Weight Changes: decrease + Food Consumption: decrease + Water Consumption: increase + ….
The test system of data set [6] is Mus musculus. The note with it: repeat dose other; oral.
Data set [7] relates to Rattus norvegicus. The note with it: repeat dose other; oral.
Data set [8] has as its system Anas platyrhynchos. The note with it: oral.
The test system of data set [9] is Rattus norvegicus. The note with it: for LD50: acute.
Data set [10] has as its system Canidae. The note with it: subchronic; duration: 90 days; oral; diet; Beagle.
For data set [11], the system named is Oryctolagus sp. The note with it: New Zealand; for NOAEL: duration: 13 days, oral, gavage.
Data set [12] has as its system Rattus norvegicus. The note with it: chronic; duration: 2 years; oral; diet; Liver: Increased weight.
Data set [13] concerns Neovison sp. The note with it: repeat dose other; oral; Mink.
The test system of data set [14] is Rattus norvegicus. The note with it: reproduction developmental, oral, gavage.
[15] abbreviates: subchronic, oral, lesions in liver, kidney and thyroid.
Setting [16] is: reproduction developmental, duration: 43 days, oral, gavage, F, Sprague-Dawley.
Setting [17] is: reproduction developmental, duration: 43 days, oral, gavage, M, Sprague-Dawley.
The mark [18] stands for this setting: reproduction developmental, duration: 43 days, oral, gavage, Sprague-Dawley, generation: F1.
[19] abbreviates: short-term, duration: 28 days, oral, gavage.
[20] abbreviates: subchronic, duration: 90 days, oral, diet, Sprague-Dawley.
The mark [21] stands for this setting: reproduction developmental, duration: 10 days, oral, gavage, F, CD.
The mark [22] stands for this setting: chronic, duration: 2 years, oral, diet, liver weight increased males.

“And” between values parts separate entries of the source, which are not always exact repeats. Equal entries are not always repeated.

In data set [1] (setting [15]), `CC(Cl)C(Cl)Cl` (stereo not drawn) [1,1,2-Trichloropropane] registered an LOAEL of 150 mg/kg-day and an NOEL of 15 mg/kg-day. Besides, the no-observed-adverse-effect level (NOAEL) in data set [2] (subchronic, duration: 90 days, drinking water, Hepatic, Other) came to 14 mg/kg-day.
Turning to `Brc1cc(Br)c(Oc2cc(Br)c(Br)cc2Br)cc1Br` [2,2',4,4',5,5'-Hexabromodiphenyl ether], in data set [3] (P0: Morris water maze (latency, last trial) + P0: Morris water maze (latency, middle trial) + P0: Morris water maze (latency, reversal trial…), the LOEL is 0.9 mg/kg-day. Besides, in data set [3] (P0: Morris water maze (latency, middle trial)), the LOEL was 9 mg/kg-day. Also, in [4], the LOAEL was 0.9 mg/kg-day and the no observed adverse effect level (NOAEL) amounted to 0.45 mg/kg-day.
As to `Nc1cccc(O)c1` [3-Aminophenol], the NOAEL amounted to 80 mg/kg-day in data set [2] (short-term, duration: 18 days, gavage, Whole Body Effects) and 240 mg/kg-day in data set [5].
Molecule `c1ccc2c(c1)cc1ccc3cccc4ccc2c1c34` [Benzo[a]pyrene] came in with an LOAEL in [1] (developmental, duration: 9 days, inhalation, reduced embryo/fetal survival) of 0.025 mg/m3. In [6], the lowest observed adverse effect level (LOAEL) stood at 10 mg/kg-day and the no observed adverse effect level (NOAEL) came out at 1 mg/kg-day.
Take `[Cl][Cd][Cl]` [Cadmium chloride]: in data set [7], the LOAEL came out at 10 mg/kg-day and the no observed adverse effect level (NOAEL) was 1 mg/kg-day. For the same molecule, in data set [8], the LOAEL worked out at 20 mg/kg-day and the no observed adverse effect level (NOAEL) is 1.45 mg/kg-day.
For `BrCBr` [Dibromomethane], the lowest-observed-adverse-effect level (LOAEL) in data set [9] (setting [16]) was found to be 500 mg/kg-day; in [9] (setting [17]), 150 mg/kg-day; in data set [9] (setting [18]), 500 mg/kg-day. In addition, the no-observed-adverse-effect level (NOAEL) in data set [9] (setting [16]) turned out to be 150 mg/kg-day; in data set [9] (setting [17]), 50 mg/kg-day; in data set [9] (setting [18]), 150 mg/kg-day; in data set [2] (short-term, duration: 28 days, drinking water, Hematologic), 8.6 mg/kg-day.
Consider `CCCCCCCCCCCCCCCCc1c(Oc2ccccc2S(=O)(=O)O)cccc1S(=O)(=O)O.[Na+].[Na+]` [Disodium hexadecyl(sulfophenoxy)benzenesulfonate], for which the NOAEL in [10] worked out at 200 mg/kg-day; in data set [9] (setting [19]) it was 250 mg/kg-day; in data set [9] (setting [20]), 100 mg/kg-day. For the same molecule, the LD50 is more than 2000 mg/kg in [9] (dermal, occlusive, Sprague-Dawley); more than 2000 mg/kg in data set [9] (dermal, occlusive, Wistar); more than 3980 mg/kg in data set [9] (oral, gavage); 1500 mg/kg and > 2000 mg/kg in data set [9] (oral, gavage, Fischer 344); 7740 mg/kg and > 5000 mg/kg in data set [9] (oral, gavage, Sprague-Dawley); more than 5000 mg/kg in [9] (oral, gavage, Wistar). Also, the lowest observed adverse effect level (LOAEL) in data set [9] (setting [19]) amounted to 1000 mg/kg-day; in data set [9] (setting [20]) it was 200 mg/kg-day.
With `O=C(O)CCCC(=O)O` [Glutaric acid], the results for the “LOAEL (% diet)” value in data set [10] and in [9] (setting [20]) were 3 and 2, respectively. For the same molecule, the “NOAEL (% diet)” value in [10] is not below 2; in data set [9] (setting [20]), not below 1. The LD50 in data set [9] (oral, Sprague-Dawley) was 2750 mg/kg; in data set [11] (acute, dermal, occlusive), more than 10000 mg/kg. Further, the no observed adverse effect level (NOAEL) in data set [9] (developmental, duration: 10 days, oral, gavage, CD) was 1300 mg/kg-day; in data set [9] (setting [21]), 125 mg/kg-day; in [9] (reproduction developmental, duration: 10 days, oral, gavage, F, Sprague-Dawley), not below 1000 mg/kg-day; in [11] (developmental) it was more than 500 mg/kg-day; in data set [11] (reproduction developmental, F), more than 500 mg/kg-day. Also, the lowest observed adverse effect level (LOAEL) in data set [9] (setting [21]) was 400 mg/kg-day.
Consider `ClC1=C(Cl)C2(Cl)C3C(Cl)C=CC3C1(Cl)C2(Cl)Cl` (stereo not drawn) [Heptachlor], for which the NOEL in data set [12] and in data set [1] (setting [22]) was 0.15 mg/kg-day in each case. This molecule showed an LEL in [1] (setting [22]) of 0.25 mg/kg-day. The lowest-observed-adverse-effect level (LOAEL) in data set [13] came out at 1 mg/kg-day; in data set [14] (duration: 14 days, F, CFT-Wistar, reproductive) it was 1.8 mg/kg-day; in data set [14] (duration: 364 days, M/F, Sprague-Dawley, immunological, neurological), 0.03 mg/kg-day. In [13], this molecule displayed an NOAEL of 0.1 mg/kg-day.
